{
  "source": "patent EP0183129A1",
  "about": "“Quinolonecarboxylic acid derivatives” (KYORIN PHARMACEUTICAL CO., LTD., priority 1984, dated 1986)",
  "key": {"[1]": {"tested_on": "S. aureus IID 670 (Terajima)", "experiment": "In vitro antibacterial activity, MIC (standard strain)", "assay_type": "cell-based, Staphylococcus aureus", "settings": "S. aureus IID 670 (Terajima); 10^6 cells/ml; standard strain; listed as Exp.4"}, "P. aeruginosa IFO 12689": {"tested_on": "P. aeruginosa IFO 12689", "experiment": "In vitro antibacterial activity, MIC (standard strain)", "assay_type": "cell-based, Pseudomonas aeruginosa", "settings": "P. aeruginosa IFO 12689; 10^6 cells/ml; standard strain"}, "M. pneumoniae Mac.": {"tested_on": "M. pneumoniae Mac.", "experiment": "In vitro antibacterial activity against Mycoplasma, MIC", "assay_type": "cell-based", "settings": "Mycoplasmoides pneumoniae, 120 h; M. pneumoniae Mac.; no visible growth after incubation for 5 days; read-out: MIC", "excerpt": "Experiment-3 In vitro antibacterial activity against Mycoplasma"}, "B. fragilis 25285": {"tested_on": "B. fragilis 25285", "experiment": "In vitro antibacterial activity, MIC (standard strain)", "assay_type": "cell-based, Bacteroides fragilis", "settings": "B. fragilis 25285; 10^6 cells/ml; standard strain; listed as Exp.4"}, "[2]": {"tested_on": "Alcaligenes faecalis 0104002", "experiment": "In vitro antibacterial activity, MIC (standard strain)", "assay_type": "cell-based", "settings": "Alcaligenes faecalis 0104002; 10^6 cells/ml; standard strain; listed as Exp.4"}, "[3]": {"tested_on": "Escherichia coli NIHJ JC-2", "experiment": "In vitro antibacterial activity, MIC (standard strain)", "assay_type": "cell-based", "settings": "Escherichia coli NIHJ JC-2; 10^6 cells/ml; standard strain; listed as Exp.4"}, "[4]": {"tested_on": "Acinetobacter anitratus IID 876", "experiment": "In vitro antibacterial activity, MIC (standard strain)", "assay_type": "cell-based", "settings": "Acinetobacter anitratus IID 876; 10^6 cells/ml; standard strain; listed as Exp.4"}, "[5]": {"tested_on": "Enterobacter cloacae IID 977", "experiment": "In vitro antibacterial activity, MIC (standard strain)", "assay_type": "cell-based", "settings": "Enterobacter cloacae IID 977; 10^6 cells/ml; standard strain; listed as Exp.4"}, "[6]": {"tested_on": "Serratia marcescens IID 618", "experiment": "In vitro antibacterial activity, MIC (standard strain)", "assay_type": "cell-based", "settings": "Serratia marcescens IID 618; 10^6 cells/ml; standard strain; listed as Exp.4"}, "[7]": {"tested_on": "Fusobacterium varium KYA 8501", "experiment": "In vitro antibacterial activity, MIC (standard strain)", "assay_type": "cell-based", "settings": "Fusobacterium varium KYA 8501; 10^6 cells/ml; standard strain; listed as Exp.4"}, "S. aureus Smith": {"tested_on": "S. aureus Smith", "experiment": "In vivo antibacterial activity against systemic infection in mice", "design": "species or system mice (ICR-S)", "settings": "Staphylococcus aureus, po, mice (ICR-S), an hour after intraperitoneal infection", "description": "(§1) Experiment-2 In vivo antibacterial activity against systemic infection in mice (ICR-S)\n(§2) The infections were produced by intraperitoneal injection of a suspension of the bacterial culture corresponding to the germ studied. The products were administered orally at an hour after the infection."}, "S. pneumoniae S-4288": {"tested_on": "S. pneumoniae S-4288", "experiment": "In vivo antibacterial activity against systemic infection in mice", "design": "species or system mice (ICR-S)", "settings": "Streptococcus pneumoniae, S4288; mice (ICR-S); oral, an hour after intraperitoneal infection; challenge dose 7.5 x 10^4 ~ 4.8 x 10^6 cfu/mouse; read-out: ED50 S. pneumoniae S-4288", "description": "as §1, §2"}, "E. coli ML4707": {"tested_on": "E. coli ML4707", "experiment": "In vivo antibacterial activity against systemic infection in mice", "design": "species or system mice (ICR-S)", "settings": "Escherichia coli, ML4707; mice (ICR-S); oral, an hour after intraperitoneal infection; challenge dose 2.7 x 10^6 ~ 8.8 x 10^6 cfu/mouse; read-out: ED50 E. coli ML4707", "description": "as §1, §2"}, "B. fragilis 0558": {"tested_on": "B. fragilis 0558", "experiment": "In vitro antibacterial activity, MIC (standard strain)", "assay_type": "cell-based, Bacteroides fragilis", "settings": "B. fragilis 0558; 10^6 cells/ml; standard strain; listed as Exp.4"}, "S. epidermidis IID 866": {"tested_on": "S. epidermidis IID 866", "experiment": "In vitro antibacterial activity, MIC (standard strain)", "assay_type": "cell-based", "settings": "S. epidermidis IID 866; 10^6 cells/ml; standard strain; listed as Exp.4"}},
  "note": "Where two headings read alike, the source gives them in different places.",
  "data": [
    {"smiles": "NCC1CCN(c2c(F)cc3c(=O)c(C(=O)O)cn(C4CC4)c3c2F)C1", "note": "(stereo not shown) [Example 4, 7-(3-Aminomethyl-1-pyrrolidinyl)-1-cyclopropyl-6,8-difluoro-1,4-dihydro-4-oxo-3-quinolinecarboxylic acid]", "values": [
      {"measurement": "MIC", "setting": "[1]", "value": 0.025, "unit": "µg/mL"},
      {"measurement": "MIC", "setting": "P. aeruginosa IFO 12689", "value": 0.39, "unit": "µg/mL"},
      {"measurement": "MIC", "setting": "M. pneumoniae Mac.", "value": 0.025, "unit": "µg/mL"},
      {"measurement": "MIC", "setting": "B. fragilis 25285", "value": 0.78, "unit": "µg/mL"},
      {"measurement": "MIC", "setting": "[2]", "value": 0.78, "unit": "µg/mL"},
      {"measurement": "MIC", "setting": "[3]", "value": 0.0125, "unit": "µg/mL"},
      {"measurement": "MIC", "setting": "[4]", "value": 0.05, "unit": "µg/mL"},
      {"measurement": "MIC", "setting": "[5]", "value": 0.05, "unit": "µg/mL"},
      {"measurement": "MIC", "setting": "[6]", "value": 0.10, "unit": "µg/mL"},
      {"measurement": "MIC", "setting": "[7]", "value": 1.56, "unit": "µg/mL"},
      {"measurement": "ED50", "setting": "S. aureus Smith; challenge dose 5.5 x 10^5 cfu/mouse, n=5, read-out: ED50 against S. aureus Smith", "value": 1.57, "unit": "mg/kg"},
      {"measurement": "ED50", "setting": "S. aureus Smith; challenge dose 6.0 x 10^5 cfu/mouse, read-out: ED50 S. aureus Smith", "value": 1.8, "unit": "mg/kg"},
      {"measurement": "ED50", "setting": "S. pneumoniae S-4288", "value": 13.8, "unit": "mg/kg"},
      {"measurement": "ED50", "setting": "E. coli ML4707", "value": 3, "unit": "mg/kg"},
      {"measurement": "MIC", "setting": "B. fragilis 0558", "value": 0.78, "unit": "µg/mL"},
      {"measurement": "MIC", "setting": "S. epidermidis IID 866", "value": 0.025, "unit": "µg/mL"}
    ]}
  ]
}
